Reference: the NIST ThermoML archive (doi:10.1021/je400679k)
± gives the expanded uncertainty stated by the source.

Assays:
[1] = xn = mol fraction of the nth substance listed; details: 101 kPa, Liquid, Vibrating tube method, x2 = 0
[2] = 101 kPa, Liquid, Vibrating tube method

Row | Structure (SMILES) | mass density ([1]; 283.15 K) | mass density ([1]; 293.15 K) | mass density ([1]; 303.15 K) | mass density ([1]; 313.15 K) | mass density ([1]; 323.15 K) | mass density ([1]; 333.15 K) | mass density ([1]; 343.15 K) | mass density ([1]; 353.15 K) | mass density ([1]; 363.15 K) | mass density ([2]; 283.15 K) | mass density ([2]; 293.15 K) | mass density ([2]; 303.15 K) | mass density ([2]; 313.15 K) | mass density ([2]; 323.15 K) | mass density ([2]; 333.15 K) | mass density ([2]; 343.15 K) | mass density ([2]; 353.15 K) | mass density ([2]; 363.15 K)
1 | CN(C)CCO [2-(N,N-dimethylamino)ethanol] + CNCCCN | 894.959 ± 0.11 kg/m3 | 886.56 ± 0.12 kg/m3 | 878.059 ± 0.12 kg/m3 | 869.428 ± 0.12 kg/m3 | 860.655 ± 0.12 kg/m3 | 851.72 ± 0.13 kg/m3 | 842.604 ± 0.13 kg/m3 | 833.288 ± 0.13 kg/m3 | 823.754 ± 0.14 kg/m3 | – | – | – | – | – | – | – | – | –
2 | CNCCCN [N-methyl-1,3-diaminopropane] | – | – | – | – | – | – | – | – | – | 860.459 ± 0.68 kg/m3 | 851.605 ± 0.67 kg/m3 | 842.69 ± 0.67 kg/m3 | 833.715 ± 0.66 kg/m3 | 824.673 ± 0.65 kg/m3 | 815.559 ± 0.64 kg/m3 | 806.37 ± 0.63 kg/m3 | 797.093 ± 0.62 kg/m3 | 787.723 ± 0.61 kg/m3
3 | O [water] | – | – | – | – | – | – | – | – | – | 999.701 ± 0.033 kg/m3 | – | – | – | – | 983.197 ± 0.041 kg/m3 | 977.76 ± 0.043 kg/m3 | 971.788 ± 0.046 kg/m3 | 965.305 ± 0.048 kg/m3
4 | CN(CCO)CCO [N-methyldiethanolamine] + CNCCCN | – | 1040.06 ± 0.92 kg/m3 | 1032.47 ± 0.9 kg/m3 | 1024.86 ± 0.89 kg/m3 | 1017.21 ± 0.87 kg/m3 | 1009.51 ± 0.86 kg/m3 | 1001.73 ± 0.84 kg/m3 | 993.889 ± 0.83 kg/m3 | 985.958 ± 0.82 kg/m3 | – | – | – | – | – | – | – | – | –
5 | O [water] + CNCCCN | 999.701 ± 0.033 kg/m3 | – | – | – | – | 983.197 ± 0.041 kg/m3 | 977.76 ± 0.043 kg/m3 | 971.788 ± 0.046 kg/m3 | 965.305 ± 0.048 kg/m3 | – | – | – | – | – | – | – | – | –
6 | CCN(CC)CCO [(diethylamino)ethanol] | – | – | – | – | – | – | – | – | – | 894.423 ± 0.23 kg/m3 | 885.356 ± 0.23 kg/m3 | 876.155 ± 0.23 kg/m3 | 866.828 ± 0.23 kg/m3 | 857.388 ± 0.23 kg/m3 | 847.839 ± 0.23 kg/m3 | 838.157 ± 0.23 kg/m3 | 828.488 ± 0.23 kg/m3 | 818.597 ± 0.24 kg/m3
7 | CN(CCO)CCO [N-methyldiethanolamine] | – | – | – | – | – | – | – | – | – | – | 1040.06 ± 0.92 kg/m3 | 1032.47 ± 0.9 kg/m3 | 1024.86 ± 0.89 kg/m3 | 1017.21 ± 0.87 kg/m3 | 1009.51 ± 0.86 kg/m3 | 1001.73 ± 0.84 kg/m3 | 993.889 ± 0.83 kg/m3 | 985.958 ± 0.82 kg/m3
8 | CCN(CC)CCO [(diethylamino)ethanol] + CNCCCN | 894.423 ± 0.23 kg/m3 | 885.356 ± 0.23 kg/m3 | 876.155 ± 0.23 kg/m3 | 866.828 ± 0.23 kg/m3 | 857.388 ± 0.23 kg/m3 | 847.839 ± 0.23 kg/m3 | 838.157 ± 0.23 kg/m3 | 828.488 ± 0.23 kg/m3 | 818.597 ± 0.24 kg/m3 | – | – | – | – | – | – | – | – | –
9 | CN(C)CCO [2-(N,N-dimethylamino)ethanol] | – | – | – | – | – | – | – | – | – | 894.959 ± 0.11 kg/m3 | 886.56 ± 0.12 kg/m3 | 878.059 ± 0.12 kg/m3 | 869.428 ± 0.12 kg/m3 | 860.655 ± 0.12 kg/m3 | 851.72 ± 0.13 kg/m3 | 842.604 ± 0.13 kg/m3 | 833.288 ± 0.13 kg/m3 | 823.754 ± 0.14 kg/m3
